Assay results reported in ChEMBL document CHEMBL1146600, “Preparation of 7-substituted ginkgolide derivatives: potent platelet activating factor (PAF) receptor antagonists” (J Med Chem, 2003).

Target: Platelet-activating factor receptor (Cavia porcellus, UniProt P21556)
Assay: Displacement of [3H]-WEB 2086 from Platelet activating factor receptor (guinea pig) transgenic mouse muscle membrane

Chain of Platelet-activating factor receptor (P21556 whole entry): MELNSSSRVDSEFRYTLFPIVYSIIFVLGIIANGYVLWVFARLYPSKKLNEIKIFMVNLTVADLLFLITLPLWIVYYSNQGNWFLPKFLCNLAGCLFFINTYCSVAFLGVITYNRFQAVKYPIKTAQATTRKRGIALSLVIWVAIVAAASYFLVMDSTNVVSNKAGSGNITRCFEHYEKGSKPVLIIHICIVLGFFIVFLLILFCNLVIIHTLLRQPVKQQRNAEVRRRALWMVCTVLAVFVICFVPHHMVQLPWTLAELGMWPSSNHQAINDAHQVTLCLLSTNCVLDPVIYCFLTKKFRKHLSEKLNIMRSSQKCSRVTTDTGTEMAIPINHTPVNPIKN

Structure (SMILES)	Ki [nM]
C[C@@H]1C(=O)OC2[C@H](O)C34C5OC(=O)C3(OC3OC(=O)[C@H](OCc6ccccc6)C34[C@@H](C(C)(C)C)[C@@H]5O)[C@]21O (some centres undefined)	1670
C[C@@H]1C(=O)O[C@H]2[C@H](O)[C@]34[C@@H]5OC(=O)[C@]3(OC3OC(=O)[C@H](O)C34C(C(C)(C)C)[C@@H]5O)[C@@]12O (single isomer, unassigned)	12600
C[C@@H]1C(=O)OC2[C@H](O)C34C5OC(=O)C3(OC3OC(=O)[C@H](O)C34[C@@H](C(C)(C)C)[C@H]5F)[C@]21O (some centres undefined)	990
C[C@@H]1C(=O)OC2[C@H](O)C34C5OC(=O)C3(OC3OC(=O)[C@H](OCc6ccccc6)C34[C@@H](C(C)(C)C)[C@H]5O)[C@]21O (some centres undefined)	600
C[C@@H]1C(=O)OC2[C@H](O)C34C5OC(=O)C3(OC3OC(=O)[C@H](OCc6ccccc6)C34[C@@H](C(C)(C)C)[C@H]5F)[C@]21O (some centres undefined)	100
C[C@@H]1C(=O)OC2[C@H](O)C34C5OC(=O)C3(OC3OC(=O)[C@H](O)C34[C@@H](C(C)(C)C)[C@H]5N=[N+]=[N-])[C@]21O (some centres undefined)	550
C[C@@H]1C(=O)OC2[C@H](O)C34C5OC(=O)C3(OC3OC(=O)[C@H](O)C34[C@@H](C(C)(C)C)[C@H]5N)[C@]21O (some centres undefined)	8640
CCN[C@H]1C2OC(=O)C34OC5OC(=O)[C@H](O)C5([C@H]1C(C)(C)C)C23[C@@H](O)C1OC(=O)[C@@H](C)[C@@]14O (some centres undefined)	1620
C[C@@H]1C(=O)OC2[C@H](O)C34C5C[C@H](C(C)(C)C)C36C(OC(=O)[C@@H]6OCc3ccccc3)OC4(C(=O)O5)[C@]21O (some centres undefined)	120
CN[C@H]1C2OC(=O)C34OC5OC(=O)[C@H](O)C5([C@H]1C(C)(C)C)C23[C@@H](O)C1OC(=O)[C@@H](C)[C@@]14O (some centres undefined)	610
C[C@@H]1C(=O)OC2[C@H](O)C34C5OC(=O)C3(OC3OC(=O)[C@H](O)C34[C@@H](C(C)(C)C)[C@H]5Cl)[C@]21O (some centres undefined)	110
CC(=O)O[C@H]1C2OC(=O)C34OC5OC(=O)[C@H](O)C5([C@H]1C(C)(C)C)C23[C@@H](O)C1OC(=O)[C@@H](C)[C@@]14O (some centres undefined)	7840
C[C@@H]1C(=O)O[C@H]2[C@H](O)[C@@]34[C@H]5CC(C(C)(C)C)[C@]36[C@@H](OC(=O)[C@@H]6O)O[C@@]4(C(=O)O5)[C@@]12O (single isomer, unassigned) [GINKOLIDE B]	880
C[C@@H]1C(=O)O[C@H]2[C@H](O)[C@]34[C@@H]5OC(=O)[C@]3(OC3OC(=O)[C@H](O)C34C(C(C)(C)C)[C@H]5O)[C@@]12O (single isomer, unassigned)	4260
